Reference: PubChem BioAssay AID588827 (Broad Institute, 2011)
Records with an inconclusive call do not appear.

Tested on: NIH3T3 R4 HSF-1 GFP reporter, heat shock, 48 h
Test: GFP reporter loss versus dox-driven RFP – NIH3T3 R4 cells, cherry-pick, set 4, dose response (AID 588827)

Question: How did the AC50 turn out when Cc1ccc(NC2=C/C(=N\S(=O)(=O)c3cccs3)c3ccccc3C2=O)c(C)c1 was run?
Answer: 1.42 µM

Question: COc1ccccc1-c1cc(C(F)(F)F)nc(S(=O)(=O)CCCC(=O)NCc2ccc(F)cc2)n1 was tested. Which AC50 did it give?
Answer: 5.26 µM

Question: With C(=N\NC1=Nc2cccc3cccc1c23)/c1ccccn1 as the molecule, how does the AC50 read?
Answer: 19.2 µM

Question: O=C(CCl)Nc1cn(-c2ccccc2)nc1-c1ccc(F)cc1 was tested. Which AC50 did it give?
Answer: 5.2 µM

Question: With COc1ccc(C[C@H]2NC[C@H](O)[C@H]2OC(C)=O)cc1 as the molecule, how does the AC50 read?
Answer: 0.361 µM

Question: How did the AC50 turn out when CC12CCC(C/C1=N\N=C1\NC(=O)/C(=C\c3ccc(Cl)cc3)S1)C2(C)C (stereo not given) was run?
Answer: 2.11 µM

Question: For Cc1cc([N+](=O)[O-])c2ccccc2[n+]1[O-], which AC50 is on record?
Answer: 11 µM

Question: How did the AC50 turn out when CC(C)(C)c1ccc2c(c1)OC(C(=O)N/N=C\c1ccc[nH]1)CO2 (stereo not given) was run?
Answer: 0.515 µM

Question: With C=C(C)C(=O)O[C@H]1C/C(C)=C\C(=O)/C=C(\C)[C@H](O)[C@@H]2OC(=O)C(=C)[C@@H]21 as the molecule, how does the AC50 read?
Answer: 12.9 µM

Question: O=S(=O)(c1ccc2c(c1)C(=NO)c1cc(S(=O)(=O)N3CCCCC3)ccc1-2)N1CCCCC1 was tested. Which AC50 did it give?
Answer: 2.49 µM

Question: CCOC(=O)c1c(C)[nH]c2c1-c1ccccc1C(=O)C2=O was tested. Which AC50 did it give?
Answer: 1.23 µM

Question: For Cn1c(=O)c([N+](=O)[O-])c(Cl)c2ccccc21, which AC50 is on record?
Answer: 14.2 µM

Question: With O=C(CCl)N(c1ccccc1)C1CCCCC1 as the molecule, how does the AC50 read?
Answer: 5.18 µM

Question: Which AC50 does the source give for CCc1ccc(C2=NNC(=Nc3cccc(S(=O)(=O)N(C)C)c3)SC2)cc1 here?
Answer: 15.7 µM

Question: For CCOC(=O)Cc1nnc2c(Nc3ccccc3F)nc3nonc3n12, which AC50 is on record?
Answer: 7.38 µM
